The results in this text go back to article PMC9972471, “Calamene-Type Sesqui-, Mero-, and Bis-sesquiterpenoids from Cultures of Heimiomyces sp., a Basidiomycete Collected in Africa” (Journal of Natural Products, 2023).

Values after ≈ are worked out from the molar mass of the structure shown. Where two headings read alike, the source gives them in different places.

Holding throughout (type): cell-based
One experiment has as its system Mucor hiemalis DSM 2656. As to the kind of experiment: Serial dilution assay, MIC. The procedure:
(§1) Figure S3. ECD spectra of 7 .
(§2) Eval uation of anti mi cr obi al acti vity.
(§3) To assess the antimicrobial activity of each compound, a serial dilution assay to ascertain their minimum inhibitory concentration (MIC) against sever al yeast, fungal and bacterial strains was c arried out in 96-well micr otiter plates, as previously described by Har ms et al.
(§4) Table S1. Minimum inhibitory concentration (MIC in µg/mL) for yeast, bacterial and fungal strains.
(§5) The serial dilution assay was performed using 1 mg/mL stock solutions of 1 -8, 13, 15 and 16. As positive control the antimicrobials [ O] Oxytetracyclin , [ G] Gentamycin and [ K] Kanamycin wer e used for bacteria and [N] Nystatin was used for filamentous fungi and yeast.
(§6) (DSM 70572), Pichia anomala (DSM 6766), Candida albicans (DSM 1665), Escherichia coli (DSM 1116), Mycobacterium smegmatis (ATCC 700084), Pseudomonas aeruginosa (DSM PA14), Chromobacterium violaceum (DSM 30191) and Acinetobacter baumannii (DSM 30008).
(§7) (1 picture or pasted object on this page, not shown here)

Experiment [1] relates to Rhodotorula glutinis DSM 10134. As to the kind of experiment: Serial dilution assay, MIC. Conditions: for MIC: DSM10134, - = no inhibition was observed, read-out: Minimum inhibitory concentration (MIC). The procedure:
as §1, §2, §3, §4, §5, §6, §7

In experiment [2] the test system is cervix carcinoma cell line KB3.1. As to the kind of experiment: In vitro cytotoxicity assay. Particulars: Homo sapiens, KB 3-1, - = no activity, read-out: Half inhibitory concentration (IC50). How it is done:
(§8) Eval uation of cytot ox icity.
(§9) Assessment of in vitro cytotoxicity was performed in 96-well plates, as previously published by Harms et al against the
(§10) mouse fibroblast cell line L929 and the cervix car cinoma cell line KB3.1. […]
(§11) Table S2. Half inhibitory concentration (IC50 i n µM ) .
(§12) The cytotoxicity assay was performed using 1 mg/mL stock solutions of 1 -8 , 13 , 15 and 16. Epo thilon B was tested as positive

The subject of experiment [3] is mouse fibroblast cell line L929. As to the kind of experiment: In vitro cytotoxicity assay. Conditions: - = no activity, read-out: Half inhibitory concentration (IC50). How it is done:
as §8, §9, §10, §11, §12

A further experiment relates to Bacillus subtilis DSM 10. The experiment in a line: Serial dilution assay, MIC. Conditions: for MIC: DSM10, - = no inhibition was observed, read-out: Minimum inhibitory concentration (MIC). The procedure: as §1, §2, §3, §4, §5, §6, §7
In experiment [4] the test system is Staphylococcus aureus DSM 346. As to the kind of experiment: Serial dilution assay, MIC. Particulars: for MIC: Staphylococcus aureus, DSM346, read-out: Minimum inhibitory concentration (MIC). The procedure: as §1, §2, §3, §4, §5, §6, §7
Experiment [5] has as its system human prostate carcinoma cell line PC-3. The experiment in a line: Extended cytotoxicity assay. Particulars: read-out: Half inhibitory concentration (IC50). How it is done: as §8
(§13) Assessment of in vitro cytotoxicity was performed in 96-well plates, as previously published by Harms et al against the mouse fibroblast cell line L929 and the cervix car cinoma cell line KB3.1. Heimiomycin D (5 ) was additionally tested against human breast carcinoma cell line MCF-7, human lung carcinoma cell line A549, human ovarian carcinoma cell line SKOV -3, human prostate carcinoma cell line P C-3 and human epidermoid carcinoma cell line A431.
as §11
(§14) The cytotoxicity assay was performed using 1 mg/mL stock solutions of 1 -8 , 13 , 15 and 16. Epo thilon B was tested as positive […]
(§15) IC50 in µM; - no activity
(§16) Table S3. Half inhibitory concentration (IC50 in µM) of 5 .
(§17) The extended cytotoxicity assay against further cell lines was performed using a 1 mg/mL stock solution of 5 . Epothilon B was tested as positive control.
(§18) Hei mio my cin D (5) Epo B

Experiment [6] relates to human lung carcinoma cell line A549. The experiment in a line: Extended cytotoxicity assay. Conditions: read-out: Half inhibitory concentration (IC50). How it is done:
as §8, §13, §11, §14, §15, §16, §17, §18

The subject of experiment [7] is human ovarian carcinoma cell line SKOV-3. As to the kind of experiment: Extended cytotoxicity assay. Particulars: SK-OV-3, read-out: Half inhibitory concentration (IC50). The procedure: as §8, §13
(§19) Table S2. Half inhibitory concentration (IC50 i n µM ) . […]
as §16, §17, §18

Experiment [8] relates to human epidermoid carcinoma cell line A431. The experiment in a line: Extended cytotoxicity assay. Particulars: read-out: Half inhibitory concentration (IC50). The procedure:
as §8, §13, §19, §16, §17, §18

The subject of experiment [9] is human breast carcinoma cell line MCF-7. The experiment in a line: Extended cytotoxicity assay. Conditions: MCF7, read-out: Half inhibitory concentration (IC50). How it is done: as §8, §13, §19, §16, §17, §18

As to `C[C@@H]1[C@H](O)[C@@H](C)/C=C/C=C/CC/C=C/C=C/C=C/C=C/C(O[C@H]2O[C@H](C)[C@@H](O)[C@H](N)[C@@H]2O)CC2O[C@](O)(CC(O)C(O)CCC(O)CC(O)CC(O)CC(=O)O[C@H]1C)CC(O)C2C(=O)O` (stereo partly drawn) [Nystatin, reference compound], the entries for the “Minimum inhibitory concentration (MIC)” value (in the experiment with Mucor hiemalis DSM 2656 (- = no inhibition was observed); in experiment [1] (- = no inhibition was observed)) were 8.3 µg/mL (≈ 8.96 µM) and 4.2 µg/mL (≈ 4.54 µM), respectively.

With `CC(C)[C@H]1CC[C@H](C)c2c(O)c(O)c3c(c21)C1=C(OC3)C(=O)C2=C(OCc3c(O)c(O)c4c(c32)[C@@H](C(C)C)CC[C@@H]4C)C1=O` [compound 4, Bis-heimiomycin D], in experiment [2], the IC50 turned out to be 35 µM.

Consider `O=c1cc(O)cc(/C=C/c2ccc(O)c(O)c2)o1` [compound 15, hispidin], for which the IC50 was 85.4 µM in experiment [3] and 93.5 µM in experiment [2].

Take `Cc1c(O)c(O)c(C(C)C)c2c1CCC(C(=O)O)=C2` [compound 8, Heimiocalamene B]: the MIC (in the experiment on Bacillus subtilis DSM 10; in [1]) was 66.6 µg/mL (≈ 254 µM) in each case. Besides, the IC50 in [3] turned out to be 37.4 µM; in [2] it was 31.3 µM.

Consider `CC(C)[C@H]1CC[C@H](C)C2=C1C=C(C(=O)O)CC2` [compound 7, Heimiocalamene A], for which the MIC in the experiment with Mucor hiemalis DSM 2656 (DSM2656, - = no inhibition was observed, read-out: Minimum inhibitory concentration (MIC)) is 33.3 µg/mL (≈ 142 µM); in the experiment on Bacillus subtilis DSM 10, 66.6 µg/mL (≈ 284 µM); in experiment [1] it was 66.6 µg/mL (≈ 284 µM); in experiment [4] it was 66.6 µg/mL (≈ 284 µM). For the same compound, in [2], the IC50 was found to be 85.5 µM.

As for `CC(C)[C@H]1CC[C@H](C)c2c(O)c(O)c(CO)c(C3=C(O)C(=O)C4=C(OCc5c(O)c(O)c6c(c54)[C@@H](C(C)C)CC[C@@H]6C)C3=O)c21` [compound 3, Bis-heimiomycin C], the MIC was 16.6 µg/mL (≈ 26.8 µM) with Bacillus subtilis DSM 10 and 33.3 µg/mL (≈ 53.8 µM) in [4]. In addition, the IC50 in experiment [3] came out at 32.4 µM; in experiment [2], 27.5 µM.

For `CC(C)[C@H]1CC[C@H](C)c2c(O)c(O)c(C=O)c(C3=C(O)C(=O)C=C(O)C3=O)c21` [compound 6, Heimiomycin E], the MIC came to 16.6 µg/mL (≈ 43 µM) with Bacillus subtilis DSM 10 and 66.6 µg/mL (≈ 172 µM) in [4]. Besides, the IC50 in [3] stood at 57 µM.

As to `O=c1cc(O)cc(C2c3c(cc(/C=C/c4ccc(O)c(O)c4)oc3=O)OC2c2ccc(O)c(O)c2)o1` (stereo not drawn) [compound 16, hypholomin B], the MIC with Bacillus subtilis DSM 10 came out at 33.3 µg/mL (≈ 67.9 µM).

On to `CN(C)[C@@H]1C(=O)C(C(N)=O)=C(O)[C@@]2(O)C(=O)C3=C(O)c4c(O)cccc4[C@@](C)(O)[C@H]3[C@H](O)[C@@H]12` [Oxytetracyclin, reference compound], for which the “Minimum inhibitory concentration (MIC)” value with Bacillus subtilis DSM 10 (- = no inhibition was observed) stood at 8.3 µg/mL (≈ 18 µM); in [4] (Staphylococcus aureus DSM 346, - = no inhibition was observed) it was 0.83 µg/mL (≈ 1.8 µM).

Take `CC(C)[C@H]1CC[C@H](C)c2c(O)c(O)c(C=O)c(C3=C(O)C(=O)C(c4c(C=O)c(O)c(O)c5c4[C@@H](C(C)C)CC[C@@H]5C)=C(O)C3=O)c21` [compound 1, Bis-heimiomycin A]: the MIC with Bacillus subtilis DSM 10 was 33.3 µg/mL (≈ 52.6 µM); in experiment [1], 66.6 µg/mL (≈ 105 µM).

For `CC1=C(O)C(=O)C(c2c(C=O)c(O)c(O)c3c2[C@@H](C(C)C)CC[C@@H]3C)=C(O)C1=O` [compound 5, Heimiomycin D], the IC50 in [5] came to 30 µM; in experiment [6] it was 14.3 µM; in experiment [7], 3 µM; in experiment [8] (A431), 4.3 µM; in experiment [8] (Homo sapiens, A-431, A431) it was 4.25 µM; in experiment [9], 2.5 µM. Besides, the results for the IC50 in experiment [3] and in experiment [2] were 45 µM and 6.3 µM, respectively. Also, the MIC (in the experiment on Bacillus subtilis DSM 10; in experiment [4]) was 33.3 µg/mL (≈ 83.2 µM) throughout.

Turning to `CC(C)[C@H]1CC[C@H](C)c2c(O)c(O)c(C=O)c(C3=C(O)C(=O)C4=C(OCc5c(O)c(O)c6c(c54)[C@@H](C(C)C)CC[C@@H]6C)C3=O)c21` [compound 2, Bis-heimiomycin B], the results for the MIC (with Bacillus subtilis DSM 10; in [4]) were 16.6 µg/mL (≈ 26.9 µM) and 33.3 µg/mL (≈ 54 µM), respectively. Also, the IC50 in experiment [2] stood at 30.8 µM.
